The results in this text go back to publication PMC5785774 (ACS Central Science, 2018).

As usually defined, the Kd is the free concentration of one partner at which half of the binding sites on the other are occupied at equilibrium, for simple one-to-one binding. Low readings indicate a tighter complex, high ones a looser complex.

This experiment addresses PKCδ-C1b (Mus musculus, UniProt P28867). Briefly: Kd measured in the peptide-phospholipid composition used for NMR. It is filed as binding.

PKCδ-C1b, sequence (P28867 231-281 limits assumed): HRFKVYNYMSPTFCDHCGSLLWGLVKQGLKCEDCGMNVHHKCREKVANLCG

In the case of `CCCC(=O)O[C@@H]1[C@@H](C)[C@@]2(O)[C@@H](C=C(CO)C[C@]3(O)C(=O)C(C)=C[C@@H]23)[C@@H]2C(C)(C)[C@]12OC(=O)CCC` [phorbol 12,13-dibutyrate], the equilibrium dissociation constant (Kd) is 1.5 nM.
